Earlier results, collected in patent US20110082545A1, “DRUG ELUTING BREAST IMPLANT COVER OR COATING” (LIPOSE CORPORATION, priority 2009, published 2011).

System: capsular contracture
Details: administered orally

SMILES: COc1cc(C(=O)NS(=O)(=O)c2ccccc2C)ccc1Cc1cn(C)c2ccc(NC(=O)OC3CCCC3)cc12 [zafirlukast]
- ability to moderate the capsular contracture: demonstrated the ability to moderate the capsular contracture
